Results on one compound are retold here after patent publication US20230241150A1, “Compositions and Uses Thereof” (Natur-Tech Pharmacal Co., Ltd, priority 2020, published 2023).

One assay deals with brain of convulsive mice. Format: in vivo, ICR mice. Conditions: carbamazepine 80 mg/kg intragastric daily 7 days; PTZ 80 mg/kg i.p.; n=12. As to the method: (§1) The mice in each group were given intragastric administration daily, for 7 consecutive days. 30 minutes after the last administration, except for the blank control group, the mice in the other groups were injected intraperitoneally with 80 mg/kg of PTZ to induce convulsions in the mice. Each mouse was placed in a separate cage for observation for 30 minutes, and behavioral changes such as stages of seizure, duration, latent period and mortality rate of the mice were recorded.
After completing the behavioral observation determined by the above relevant indicators, experiments were conducted to study the effect of the composition on the contents of NO, Na-K-ATP, Asp, and 5-HT in the brain of convulsive mice. After the behavioral observation was over, the mice were immediately executed, and the brain tissues and the required organs were quickly taken out, weighed, and then the brain tissues were placed in liquid nitrogen and stored in a refrigerator at -80° C. Blood stains on the surface were washed off with pre-cooled saline before measurement. The tissues were then weighed and PBS was added in a volume ratio of 1:9 to fully homogenize the brain tissues. The homogenate was centrifuged at 3000 r/min for 20 minutes. The supernatant was collected as samples for subsequent ELISA test to detect the content of GABA, Glu, NO, Na^+-K^+-ATP, Asp, 5-HT, etc.

Assay [1] deals with PTZ-induced epileptic mice. As to the kind of experiment: PTZ-induced epilepsy in mice: seizure stage (Racine scale), convulsions, mortality. Type of assay: in vivo, ICR mice. Conditions: carbamazepine 80 mg/kg intragastric daily 7 days; PTZ 80 mg/kg i.p.; n=12.
Description: As known to those skilled in the art, pentylenetetrazole (PTZ) is a powerful seizure-inducing agent, and its epileptic model is considered to be one of the ideal models for systemic tonic seizures. PTZ itself has no special neurotoxicity, so it is widely used in the study of epilepsy pathogenesis and the screening of anti-epileptic drugs. When PTZ induces epilepsy in mice, its seizures are characterized by clonic seizures in the initial stage, followed by systemic tonic seizures soon afterwards. PTZ is a central nervous system stimulant that acts on GABA-GABAA receptor system. It promotes the enhancement of the excitatory synaptic facilitation and reduces the release of GABA. This in turn reduces the inhibitory ability, increases the sensitivity to convulsions, and increases the excitability of the central nervous system, thereby inducing EP. According to its seizure characteristics, in this experiment, these two seizure forms were used as indicators and combined with the current Racine scale to analyze their epileptic behavior.
as §1
The Racine scale (see: https://en.wikipedia.org/wiki/Racine_stages) was used to determine the level of epilepsy in mice: • Stage 0: No response; • Stage I: Wet dog shakes, facial twitches, clonus, tremors (such as eye blinking, moustache movements, rhythmic chewing, etc.); • Stage II: Stage I plus rhythmic nodding; • Stage III: Stage II plus forelimb clonus, but no rearing; • Stage IV: Rearing and oblique bilateral falling, or rearing with forelimb clonus; and • Stage V: Imbalance, tipping, twitching of limbs, generalized clonus, generalized tonic seizures, falling, rolling, and loss of postural control.

Marks after values point to notes of the source that are not given here.

With `NC(=O)N1c2ccccc2C=Cc2ccccc21` [Carbamazepine], in the assay with brain of convulsive mice, the “5-HT content in the brain” value was found to be 14.6 ± 2.6 ng/L, the “NO content in the brain” value worked out at 26.4 ± 2.5 µmol/L and the “Na-K-ATP content in the brain” value worked out at 192.1 ± 5.7 ng/L. Moreover, in assay [1], the Duration of convulsions came to 165.3 ± 32.5 s, the “Latent period of convulsions” value amounted to 365.2 ± 25.6 s, the Morality rates is given as 16.7% and the Number of convulsions is listed as 8. In assay [1], the “number of seizures, Stage I” value is reported as 0.9±0.4; the “number of seizures, Stage II” value is reported as 1.4±0.8; the “number of seizures, Stage III” value is given as 1.5±0.8; the “number of seizures, Stage IV” value came to 2.1±1.8. Also, in assay [1], the “number of seizures, Stage V” value worked out at 6.3±2.1; the “seizure behavior: number of mice at Stage 0” value is reported as 1; the “seizure behavior: number of mice at Stage I” value is listed as 3; the “seizure behavior: number of mice at Stage II” value was 3. Moreover, in assay [1], the “seizure behavior: number of mice at Stage III” value worked out at 2, the “seizure behavior: number of mice at Stage IV” value was 2 and the “seizure behavior: number of mice at Stage V” value is recorded as 1*.
